According to patent publication US20220281848A1, “PYRAZOLE-SUBSTITUTED PYRROLIDINONES AS HERBICIDES” (FMC Corporation, priority 2019, published 2022):

Key:
Type in all cases: in vivo
[1] = tested on: giant foxtail (Setaria faberi, SETFA); experiment: Test A pre-emergence, giant foxtail; conditions: after 13 d
Procedure, shortened: (§1)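 After sowing in pots and a single day of glasshouse cultivation, the soil was treated with an aqueous spray of the compound (acetone/water 50:50, 0.5% Tween 20) giving 15.625, 62.5 or 250 g/ha. Evaluation after 13 d used a scale where 0 meant no damage and 100 total damage.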

maize = experiment: Test D pre-emergence, maize seed treated with a herbicide safener; conditions: ZEAMX, preemergent, 20 DAA
Procedure, shortened: (§2)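 Safener-seed-treated maize and wheat were sprayed with an emulsifiable formulation diluted in 0.2% v/v adjuvant solution, one day after sowing (pre-emergence) or after about 12 days (post-emergence). Plants were grown in a glasshouse at 24/18 or 20/16 °C with 16 h light; damage was scored 0–100 at 20 DAA (pre) or 15 d (post).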

[2] = tested on: giant foxtail (Setaria faberi, SETFA); experiment: Test A post-emergence, giant foxtail; conditions: after 13 d
Procedure, shortened: (§3)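 Foliar application to 8-day-old seedlings at 15.625, 62.5 or 250 g/ha; phytotoxicity scored 0–100 after 13 d.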

[3] = tested on: barnyardgrass (Echinochloa crus-galli, ECHCG); experiment: Test A post-emergence, barnyardgrass; conditions: after 13 d
Procedure, shortened: as §3

[4] = tested on: velvetleaf (Abutilon theophrasti, ABUTH); experiment: Test A pre-emergence, velvetleaf; conditions: after 13 d
Procedure, shortened: as §1

[5] = tested on: velvetleaf (Abutilon theophrasti, ABUTH); experiment: Test A post-emergence, velvetleaf; conditions: after 13 d
Procedure, shortened: as §3

[6] = tested on: redroot pigweed (Amaranthus retroflexus, AMARE); experiment: Test A post-emergence, redroot pigweed; conditions: after 13 d
Procedure, shortened: as §3

[7] = tested on: redroot pigweed (Amaranthus retroflexus, AMARE); experiment: Test A pre-emergence, redroot pigweed; conditions: after 13 d
Procedure, shortened: as §1

wheat = experiment: Test D pre-emergence, wheat seed treated with a herbicide safener; conditions: 100=total damage, 0=no damage
Procedure, shortened: as §2

corn (Zea mays, ZEAMX) = experiment: Test A pre-emergence, corn; conditions: after 13 d
Procedure, shortened: as §1

CCn1nc([C@@H]2CN(C)C(=O)[C@H]2C(=O)Nc2cccc(F)c2F)c2cccc(F)c21 [Compound 14]
20: damage to plant (100=total damage to plant; 0=no damage to plant), ZEAMX (maize; rate 250) | damage to plant (100=total damage; 0=no damage) ZEAMX (corn (Zea mays, ZEAMX); Pre-Emergence at 15.625 g/ha)
50: damage to plant (100=total damage to plant; 0=no damage to plant), ZEAMX (maize; rate 500)
60: damage to plant (100=total damage; 0=no damage) SETFA ([1]; Pre-Emergence at 15.625 g/ha) | damage to plant, TRZAW (wheat; rate 250, 20 DAA)
10: damage to plant (100=total damage to plant; 0=no damage to plant), ZEAMX (maize; rate 130) | damage to plant (100=total damage; 0=no damage) ZEAMX (corn (Zea mays, ZEAMX); Pre-Emergence at 62.5 g/ha)
70: damage to plant (100=total damage; 0=no damage) ZEAMX (corn (Zea mays, ZEAMX); Pre-Emergence at 250 g/ha)
0: damage to plant (100=total damage to plant; 0=no damage to plant), ZEAMX (maize; rate 15) | damage to plant (100=total damage to plant; 0=no damage to plant), ZEAMX (maize; rate 30) | damage to plant (100=total damage to plant; 0=no damage to plant), ZEAMX (maize; rate 60) | damage to plant (100=total damage; 0=no damage) ABUTH ([4]; Pre-Emergence at 15.625 g/ha) | damage to plant (100=total damage; 0=no damage) ABUTH ([4]; Pre-Emergence at 62.5 g/ha) | damage to plant (100=total damage; 0=no damage) ABUTH ([4]; Pre-Emergence at 250 g/ha) | damage to plant (100=total damage; 0=no damage) ABUTH ([5]; Post-Emergence at 15.625 g/ha) | damage to plant (100=total damage; 0=no damage) ABUTH ([5]; Post-Emergence at 62.5 g/ha) | damage to plant (100=total damage; 0=no damage) ABUTH ([5]; Post-Emergence at 250 g/ha) | damage to plant (100=total damage; 0=no damage) AMARE ([6]; Post-Emergence at 15.625 g/ha) | damage to plant (100=total damage; 0=no damage) AMARE ([6]; Post-Emergence at 62.5 g/ha) | damage to plant (100=total damage; 0=no damage) AMARE ([6]; Post-Emergence at 250 g/ha) | damage to plant (100=total damage; 0=no damage) AMARE ([7]; Pre-Emergence at 15.625 g/ha) | damage to plant (100=total damage; 0=no damage) AMARE ([7]; Pre-Emergence at 62.5 g/ha) | damage to plant (100=total damage; 0=no damage) AMARE ([7]; Pre-Emergence at 250 g/ha) | damage to plant, TRZAW (wheat; rate 15, 20 DAA) | damage to plant, TRZAW (wheat; rate 30, 20 DAA) | damage to plant, TRZAW (wheat; rate 60, 20 DAA) | damage to plant, TRZAW (wheat; rate 130, 20 DAA)
80: damage to plant (100=total damage; 0=no damage) SETFA ([2]; Post-Emergence at 15.625 g/ha) | damage to plant (100=total damage; 0=no damage) SETFA ([2]; Post-Emergence at 62.5 g/ha) | damage to plant (100=total damage; 0=no damage) ECHCG ([3]; Post-Emergence at 15.625 g/ha) | damage to plant (100=total damage; 0=no damage) ECHCG ([3]; Post-Emergence at 62.5 g/ha) | damage to plant (100=total damage; 0=no damage) ECHCG ([3]; Post-Emergence at 250 g/ha)
90: damage to plant (100=total damage; 0=no damage) SETFA ([1]; Pre-Emergence at 62.5 g/ha) | damage to plant (100=total damage; 0=no damage) SETFA ([1]; Pre-Emergence at 250 g/ha) | damage to plant (100=total damage; 0=no damage) SETFA ([2]; Post-Emergence at 250 g/ha) | damage to plant, TRZAW (wheat; rate 500, 20 DAA)
